Experimental data taken from US20230028658A1, “EXPANDED DOSAGE REGIMENS FOR INTEGRIN INHIBITORS” (Pliant Therapeutics, Inc., priority 2021, published 2023).
Read-outs that look alike come from different tables or passages of the source.

Assays:
COL1A1 = COL1A1 expression in precision cut lung slices (PCLS) from human IPF lung tissue (FIG. 6E); format: cell-based; conditions: concentrations ranging from 200 pM to 1 μM, versus 0.1% DMSO control
Procedure: FIG. 6D is a bar graph showing relative expression of COL1A1 in precision cut lung slices (PCLS) from idiopathic pulmonary fibrosis (IPF) lung tissue upon exposure to Compound 5, clinical standard of care compounds nintedanib (Nin) and pirfenidone (Pirf), and an ALK5 inhibitor, all versus DMSO control.
COL1A1 expression is also graphed for the PCLS in the presence of 0.1% DMSO control, and an Alk5 inhibitor at 1 μM.

[1] = Single dose pharmacokinetics (SAD), Example B14; format: in vivo, human; conditions: for half-life / Cmax / AUC(0-t) / Tmax: human, oral; for half-life: plasma total drug; for half-life / Cmax / AUC(0-t): geometric mean; for Cmax / AUC(0-t) / Tmax: plasma; for AUC(0-t): read-out: AUC0-24, ng × h/mL; for Tmax: median
Description: Accordingly, a study was designed to assess the PK of Compound 5 after a single dose and following a 6-day course of doses, at levels exceeding the dosages used in preceding Examples B12 and B13. This study was designed to assess at these higher doses aspects of the single-dose and steady-state pharmacokinetics of Compound 5.
This study was a single-center, randomized, double-blind, ascending dose, placebo-controlled study in healthy participants. Each cohort included 10 participants (8 active, 2 placebo). Study participants received single ascending doses (SAD) of Compound 5 of 120, 160, 240, 320, 480, and 640 mg and multiple ascending doses (MAD) of Compound 5 of 80, 120, 160, 240, and 320 mg. Two cohorts of participants at 160 mg were studied in the MAD phase of the study.
Participants received single Compound 5 doses of 120, 160, 240, 320, 480, and 640 mg. A total of 60 participants were enrolled across the dosing groups, with 48 participants who received Compound 5 available for PK analyses. Despite the substantially higher dosages, PK parameters in the dosing groups were consistent with those observed at lower doses in Example B12.

pSMAD2/SMAD2 = pSMAD2/SMAD2 in BALF cells of healthy participants, Example B15 Part 1; format: in vivo, human; conditions: preliminary analysis
Description: The primary objective of this study was to assess the pharmacodynamic changes in biomarkers of TGF-β activation in alveolar macrophages from bronchoalveolar lavage fluid (BALF) following dosing of Compound 5 for 7 days. Secondary objectives of this study were to assess the safety and tolerability of Compound 5 following dosing for 7 days, the plasma PK of Compound 5, and the PK/PD (BALF biomarkers) relationship.
This study was designed as a randomized, double-blind, placebo-controlled study in 48 healthy participants conducted in 2 parts. Part 1 has completed clinical conduct, and Part 2 is ongoing. In Part 1, 24 participants were randomized 1:1:1 to receive Compound 5 80 mg QD, Compound 5 160 mg QD, or placebo QD. A safety review committee reviewed the safety and PK data from Part 1 and recommended doses for Part 2. In Part 2, 24 participants were randomized 1:1:1 to receive Compound 5 320 mg QD (Compound 5 in the morning and matched placebo in the afternoon), Compound 5 160 mg twice daily (BID), or placebo BID. In both parts, samples of BALF were collected from the middle lobe or lingula via bronchoscopy prior to dosing (Day −1) and at 6 and 24 hours post morning dose on Day 7. BALF samples were assessed for TGF-β receptor kinase activity (pSMAD2/SMAD2) in pelleted cells (primarily alveolar macrophages) and additional cell material was used to measure TGF-β signaling pathway-related gene expression levels. Plasma samples were collected to measure Compound 5 concentrations and determine protein binding. Safety was monitored via open-ended AE inquiry and clinical chemistry, hematology, vital sign, and 12-lead ECG parameters.

healthy mice = experiment: pSMAD3/SMAD3 in lung tissue and BALF of healthy mice; format: in vivo; conditions: 4 days of compound 5 treatment, FIG. 4B
Description: It has been previously shown that inhibition of αvβ6 in the lung can be detected though measurement of phospho-SMAD (pSMAD) in alveolar macrophages. Alveolar macrophages are known to operate in a unique niche in the lung, distinct from interstitial macrophages. SMAD3 is a downstream target of the active TGF-β cytokine binding its receptor and in alveolar macrophages it is phosphorylated by homoeostatic levels of TGF-β. Accordingly, it was desirable to know whether inhibition of TGF-β activation using the disclosed compounds would result in reduced SMAD2 and SMAD3 phosphorylation.
Mice (C57BL/6) were divided into healthy (n=15), vehicle-treated (n=15), and test article-treated (n=15 per dose) groups. […] […] […] […] […] […] […] Samples were prepared for analysis either directly from lung tissue, or by bronchoalveolar lavage, which washes out the bronchiolar and alveolar space with saline to produce a bronchoalveolar lavage fluid (BALF) in which 80-90% of cells are alveolar macrophages.
FIG. 4A is a graph of PSMAD3/SMAD3 in lung tissue from healthy mice administered PBS vehicle and varying levels of compound 5 for 4 days. FIG. 4B is a graph of PSMAD3/SMAD3 in BALF drawn from the same healthy mice administered PBS vehicle and varying levels of compound 5 for 4 days.

lung Col1a1 expression = experiment: Precision cut lung slices from human IPF explants, 3 days, Col1a1 expression; format: cell-based; conditions: human IPF PCLS, 3G9 ≥400 ng/mL, compound 5 179 nM, ALK5 inhibitor 1 μM, FIG. 6C
Description: Explanted lung tissue was obtained from human IPF subjects and inflated with agarose as described in the preceding examples. Biopsy cores were obtained from the agarose-inflated lung tissue. The biopsy cores were subjected to precision slicing to obtain several hundred μm thick. Individual slices were distributed in a multiwell culture plate and cultured for […] under control (DMSO) and test compound conditions. The viability of the slices over the course of culturing was confirmed by WST-1 assay of mitochondrial activity.

half-life ([1]; single dose 120 mg): 37 h
half-life ([1]; single dose 160 mg): 36.5 h
half-life ([1]; single dose 240 mg): 46 h
half-life ([1]; single dose 320 mg): 40.7 h
half-life ([1]; single dose 480 mg): 43.7 h
half-life ([1]; single dose 640 mg): 42.3 h
Cmax ([1]; single dose 120 mg): 2710 ng/mL
AUC(0-t) ([1]; single dose 120 mg): 27400 ng·h/mL
Tmax ([1]; single dose 120 mg): 4 h
Cmax ([1]; single dose 160 mg): 2480 ng/mL
AUC(0-t) ([1]; single dose 160 mg): 28500 ng·h/mL
Tmax ([1]; single dose 160 mg): 1.95 h
Cmax ([1]; single dose 240 mg): 4390 ng/mL
AUC(0-t) ([1]; single dose 240 mg): 48000 ng·h/mL
Tmax ([1]; single dose 240 mg): 3.5 h
Cmax ([1]; single dose 320 mg): 6390 ng/mL
AUC(0-t) ([1]; single dose 320 mg): 71200 ng·h/mL
Tmax ([1]; single dose 320 mg): 4 h
Cmax ([1]; single dose 480 mg): 5080 ng/mL
AUC(0-t) ([1]; single dose 480 mg): 57300 ng·h/mL
Tmax ([1]; single dose 480 mg): 3 h
Cmax ([1]; single dose 640 mg): 6900 ng/mL
AUC(0-t) ([1]; single dose 640 mg): 88300 ng·h/mL
Tmax ([1]; single dose 640 mg): 3.5 h
dose proportionality of total (AUC0-24) and peak (Cmax) exposure ([1]; single oral doses of 120 to 320 mg): increased in a dose-proportional manner
Compound: COCCN(CCCCc1ccc2c(n1)NCCC2)CC[C@H](Nc1ncnc2ccccc12)C(=O)O [Compound 5, (S)-4-((2-methoxyethyl) (4-(5,6,7,8-tetrahydro-1,8-naphthyridin-2-yl)butyl)amino)-2-(quinazolin-4-ylamino) butanoic acid]
COL1A1 expression in PCLS from human IPF lung tissue (COL1A1): dose dependent reduction
dose proportionality of total and peak exposures ([1]; single doses over the range of 120 to 640 mg): slightly less than dose-proportional manner
reduction in pSMAD2 levels (pSMAD2/SMAD2 ratio) (pSMAD2/SMAD2; 80 mg QD 7 days, 6 hours post dose Day 7): 41.2%
reduction in pSMAD2 levels (pSMAD2/SMAD2 ratio) (pSMAD2/SMAD2; 80 mg QD 7 days, 24 hours post dose Day 7): 36.6%
reduction in pSMAD2 levels (pSMAD2/SMAD2 ratio) (pSMAD2/SMAD2; 160 mg QD 7 days, 6 hours post dose Day 7): 57.8%
reduction in pSMAD2 levels (pSMAD2/SMAD2 ratio) (pSMAD2/SMAD2; 160 mg QD 7 days, 24 hours post dose Day 7): 53.2%
PSMAD3/SMAD3 in cells isolated from BALF (healthy mice): approximately 50 % of the untreated levels
lung Col1a1 expression (lung Col1a1 expression): substantial, statistically significant (p<0.01 vs vehicle) decrease
